Like-named read-outs stand apart in the source and are kept apart here. Non-standard residues stand in square brackets, D forms with d. Residues, ends and D or L forms follow the SMILES beside them. No end group written: not given here. Arg(NO2) = N=C(NCCC[C@H](N)C(=O)O)N[N+](=O)[O-]; Aib = CC(C)(N)C(=O)O
Assays:
B-CLL cells = test: Cytotoxicity on patient-derived B-CLL cells (MTS assay); settings: for Fold Change: CLL EC50 relative to COG056 (rev133) = 1.0
Description: FIG. 5A: Dose response curves for COG449 cytotoxicity on CLL cells from 4 leukemia patients. Human CLL cells were isolated from blood samples and assayed for COG449 cytotoxicity. […] FIG. 5B: Dose response curves for COG445 on CLL cells from 7 patients or normal B-cells from 5 patients. Human CLL cells and PBMC were isolated and assayed for cytotoxicity of COG445.
Blood from CLL patients was collected and CD5+/CD19+ CLL cells were isolated using the RosetteSep™ Human B-Cell Enrichment Cocktail, according to the manufacturer's instructions, and treated with COG compounds. Compounds were applied to B-CLL cells (2.5×10^5 cells/well in a 96 well plate), after which the cells were treated for 72 hours.
Normal B-cells from volunteers and B-CLL cells from patients are isolated using the RosetteSep™ Human B Cell Enrichment Cocktail according to the manufacturer's instructions. This method depletes whole blood of T cells, monocytes, and NK cells using a proprietary antibody cocktail that cross-links unwanted cells in human whole blood to multiple red blood cells (RBCs) forming immunorosettes. This increases the density of the unwanted (rosetted) cells, such that they pellet along with the free RBCs when centrifuged over a buoyant density medium such as Ficoll-Paque®. This leaves the highly enriched B-cell or B-CLL cells at the interface between Ficoll and the plasma. The antibodies in the cocktail contain […] and anti-CD16 antibodies to remove T cells, monocytes, and NK cells, respectively. The purity of these B-cell and B-CLL preparations is then determined by flow cytometry.
For cytotoxicity assays, 3×10^6 CLL cells/well are cultured in 24 well tissue culture plates in 1.5 mL of Hybridoma SFM™ (Gibco, Long Island, N.Y.) as described by Levesque et al. (2001, 2003). All cultures are incubated at 37° C., 5% CO2 in air.

BV2 microglia cells [1] = settings: previously shown; cited from earlier work
BV2 microglia cells [2] = test: LPS-induced nitric oxide production in BV2 microglia cells; assay type: cell-based; settings: for EC50: 50% suppression of nitric oxide release from BV2 cells following LPS stimulation
Protocol: FIG. 1. COG 112 inhibits LPS-induced production of inflammatory cytokines in BV2 microglia cells. Inhibition curves for COG112 in the production of NO (green squares), TNFα (red diamonds), and IL-6 (blue triangles) by BV2 microglia. Compounds were added to the final concentrations indicated on the graph along with 100 ng/mL of LPS. After 24 hours the media was removed and assayed by two-site ELISA (BioSource) and quantitated relative to a standard curve on the same plate.
FIG. 3. NO Inhibition curve for COG449. BV2 microglia were treated with COG449 at the final concentrations indicated on the graph, along with 100 ng/mL of LPS. After 24 hours the media was removed and assayed by two-site ELISA (BioSource) and quantitated relative to a standard curve on the same plate.
(§1) We also evaluated the various peptides for efficacy in suppressing nitric oxide production induced by LPS stimulation of BV2 microglia cells as a measure of anti-inflammatory activity as well as the maximum dose tolerated in mice (Table I and FIG. 6A). For the LPS assay, EC50 is the concentration of compound that caused a 50% suppression of nitric oxide release from BV2 cells following LPS stimulation. For mouse toxicity, MTD is the maximum dose of the compound that can be given by intravenous injection without causing deaths after 24 hrs. […] Coupling the ApoE domain to a protein transduction domain further enhanced the potency of the dimers.
Low passage BV2 microglial cell cultures are maintained in 10% HI (Heat Inactivated) FBS DMEM media (supplemented with MEM NEAA (Non-Essential Amino Acids), sodium pyruvate and Pen-Strep) and continuously cultured until needed. To determine the IC50 values for NO production, peptides are added to BV2 cultures in 1% HI FBS DMEM media (supplemented with MEM NEAA and sodium pyruvate) at a range of final assay concentrations from 1.0 μM in 2 fold dilutions to 7.8 nM followed immediately by addition of LPS (100 ng/mL final concentration) as previously described (Laskowitz et al. (2001) Exp Neurol, Vol. 167(1): 74-85). After incubating for 18±1 hours, conditioned media is removed for analysis of nitrite (the stable oxidation product of released nitric oxide) by the Griess colorimetric assay (Promega). Remaining cells are assayed for viability in an MTT assay (Promega) and the nitrite assay values are normalized for each concentration using the percent viability of cells in the MTT assay. […] Typically, the absence of LPS exposure to BV2 cells results in levels below the limit of detection in our assays. Similarly, addition of any of the peptides up to 25 μM without LPS results in undetectable NO levels.

[3] = tested on: MDA-MB-231 breast cancer cells; assay type: cell-based; settings: 48 hours, MTT
Protocol: (§2) FIG. 14A: Dose response curve of COG445 on proliferation of U87 (open circles) and MDA-MB-231 (filled circles) cells as measured by MTT reduction. FIG. 14B: Dose response curve of COG445 on proliferation of MDA-MB-231 cells as measured by cell count.
Next, we examined the potency of an ApoE peptide dimer versus the monomeric form on proliferation of the MDA-MB-231 breast cancer cell line. MDA-MB-231 cells were treated with various concentrations of either COG435 (monomer; SEQ ID NO: 90) or COG493 (a BMOE-linked dimer of COG 435) peptides for 48 hours. Following peptide treatment, cells were quantified using a MTT assay.
(§3) Because COG445 inhibited Akt activation and downstream signaling, we examined the effects of COG445 on cellular proliferation. Adherent MB231 and U87 cells were grown for ˜24 hours in the presence of COG445 and cellular proliferation was measured by MTT reduction. […] Furthermore, COG445 inhibited MB231 cellular proliferation as determined by cell count (FIG. 14B). Approximately 6×10^4 cells were plated in growth media (RPMI+10% FBS) for 24-hours with increasing concentrations of COG445. […] However at concentrations ≧1 μM COG445, there appears to be a loss of cells. This is partially explained by decreased proliferation, although it is possible that the rate of cellular degradation was increased in the presence of COG445.

[4] = Mouse toxicity, maximum tolerated dose by intravenous injection; settings: in vivo, maximum dose by intravenous injection without deaths after 24 hrs
Description: as §1

U87MG glioblastoma cells = assay type: cell-based; settings: MTT
Protocol: as §2
To determine whether ApoE peptide dimers were cytotoxic to other types of cancer, we evaluated the effect of three different ApoE BMOE-linked peptide dimers (COG449, COG492, COG493; see Table I) on the growth characteristics of U87MG glioblastoma cells. Various concentrations of COG449, COG492, COG493 or Sorafenib were used to treat U87MG glioblastoma cells and viable cells were quanititated using MTT. Sorafenib, which has previously been reported to be cytotoxic to glioblastoma cells (Yang et al. (2010) Mol Cancer Ther., Vol. 9(4):953-962), was used as a positive control.
as §3

normal B-cells = test: Cytotoxicity on normal B-cells from volunteers; assay type: cell-based, human; settings: normal B-cells from volunteers
Description: Normal B-cells from volunteers and B-CLL cells from patients are isolated using the RosetteSep™ Human B Cell Enrichment Cocktail according to the manufacturer's instructions. This method depletes whole blood of T cells, monocytes, and NK cells using a proprietary antibody cocktail that cross-links unwanted cells in human whole blood to multiple red blood cells (RBCs) forming immunorosettes. This increases the density of the unwanted (rosetted) cells, such that they pellet along with the free RBCs when centrifuged over a buoyant density medium such as Ficoll-Paque®. This leaves the highly enriched B-cell or B-CLL cells at the interface between Ficoll and the plasma. The antibodies in the cocktail contain anti-CD14, anti-CD2 and anti-CD16 antibodies to remove T cells, monocytes, and NK cells, respectively. The purity of these B-cell and B-CLL preparations is then determined by flow cytometry. Preparations typically average less than 2% CD3+ T-cells and less than 0.5% CD14+ monocytes. In the case of B-CLL cell isolation, we routinely obtain preparations that contain less than 1.5% normal CD19+/CD5− B-cells using this method.

[5] = Pharmacokinetics of subcutaneously injected COG1410; settings: plasma, sc
Protocol: Male C57Bl/6 mice (20-24 g, Charles River, Raleigh, N.C.) are injected with a peptide dimer subcutaneously at a volume of 5 mL/kg in the scruff of the neck. Ten minutes before the desired timepoint, mice are anesthetized and at the desired timepoint blood is drawn by cardiac puncture. Blood from at least 4 mice is used for each timepoint with the samples collected at 5, 10, 15, 30, 45, 60, 90, 120, 180 and 240 minutes for the initial analysis. The samples are processed and the pharmacokinetic analysis is completed. […] In the event that the half life has not been reached, a repeat of the experiment is performed that uses one timepoint before the observed Tmax, a timepoint at the observed Tmax and timepoints extending long enough to adequately determine the half life based on extrapolation of the previous observations of clearance from the plasma. Analysis of three concentrations of the peptide dimer is also performed to determine if there is a dose dependent effect on the pharmacokinetic parameters.

BV2 cells = test: LD50 of COG112 (safety window versus suppression in BV2 cells); assay type: cell-based
Protocol: We have previously shown that the addition of a protein transduction domain (PTD), such as an antennapedia peptide, to the apoE-mimetic COG133 peptide (LRVRLASHLRKLRKRLL (SEQ ID NO: 3)) enhances its anti-inflammatory activity. A series of fusion peptides with COG133 conjugated to a PTD were prepared by chemical synthesis.

TNFα = test: LPS-induced TNFα production in BV2 microglia; assay type: cell-based; settings: BV2 cells
Protocol: (§4) FIG. 1. […] Compounds were added to the final concentrations indicated on the graph along with 100 ng/mL of LPS. After 24 hours the media was removed and assayed by two-site ELISA (BioSource) and quantitated relative to a standard curve on the same plate.
(§5) A series of fusion peptides with COG133 conjugated to a PTD were prepared by chemical synthesis.

IL-6 = test: LPS-induced IL-6 production in BV2 microglia; assay type: cell-based; settings: BV2 cells
Protocol: as §4, §5

[6] = read-out: CLL EC50, B-CLL cells from patients, 72 hours, MTS assay

| Compound | Fold Change (B-CLL cells) | EC50 (B-CLL cells; [6]) [µM] | anti-inflammatory activity relative to COG133 in NO release assays (BV2 microglia cells [1]) | EC50 (BV2 microglia cells [2]) [µM] | MTD at 24 h [4] [mg/kg] | EC50 (normal B-cells) [µM] | also measured |
| --- | --- | --- | --- | --- | --- | --- | --- |
| CC(=O)N[C@@H](CC(C)C)C(=O)N[C@@H](CCCNC(=N)N)C(=O)N[C@H](C(=O)N[C@@H](CCCNC(=N)N)C(=O)N[C@@H](CC(C)C)C(=O)N[C@@H](C)C(=O)N[C@@H](CO)C(=O)NC(C)(C)C(=O)N[C@@H](CC(C)C)C(=O)N[C@@H](CCCCN)C(=O)N[C@@H](CCCNC(=N)N)C(=O)N[C@@H](CC(C)C)C(=O)N[C@@H](CCCNC(=N)N)C(=O)N[C@@H](CCCCN)C(=O)N[C@@H](CCCNC(=N)N[N+](=O)[O-])C(=O)N[C@@H](CC(C)C)C(=O)N[C@@H](CC(C)C)C(N)=O)C(C)C [COG248, LRVRLAS(Aib)LKRLRK(nitroR)LL (SEQ ID NO: 4)] (Ac-LRVRLAS[Aib]LKRLRK[Arg(NO2)]LL-NH2) | 5.5 | 2.3 | improved anti-inflammatory activity | 0.9 |  |  |  |
| CC(=O)N[C@@H](Cc1c[nH]c2ccccc12)C(=O)N[C@@H](CCCCN)C(=O)N[C@@H](CCCCN)C(=O)N[C@@H](CSC1CC(=O)N(CCN2C(=O)CC(SC[C@H](NC(=O)[C@H](CCCCN)NC(=O)[C@H](CCCCN)NC(=O)[C@H](Cc3c[nH]c4ccccc34)NC(C)=O)C(=O)N[C@@H](CC(C)C)C(=O)N[C@@H](CCCNC(=N)N)C(=O)N[C@H](C(=O)N[C@@H](CCCNC(=N)N)C(=O)N[C@@H](CC(C)C)C(=O)N[C@@H](C)C(=O)N[C@@H](CO)C(=O)N[C@@H](Cc3c[nH]cn3)C(=O)N[C@@H](CC(C)C)C(=O)N[C@@H](CCCNC(=N)N)C(=O)N[C@@H](CCCCN)C(=O)N[C@@H](CC(C)C)C(=O)N[C@@H](CCCNC(=N)N)C(=O)N[C@@H](CCCCN)C(=O)N[C@@H](CCCNC(=N)N)C(=O)N[C@@H](CC(C)C)C(=O)N[C@@H](CC(C)C)C(N)=O)C(C)C)C2=O)C1=O)C(=O)N[C@@H](CC(C)C)C(=O)N[C@@H](CCCNC(=N)N)C(=O)N[C@H](C(=O)N[C@@H](CCCNC(=N)N)C(=O)N[C@@H](CC(C)C)C(=O)N[C@@H](C)C(=O)N[C@@H](CO)C(=O)N[C@@H](Cc1c[nH]cn1)C(=O)N[C@@H](CC(C)C)C(=O)N[C@@H](CCCNC(=N)N)C(=O)N[C@@H](CCCCN)C(=O)N[C@@H](CC(C)C)C(=O)N[C@@H](CCCNC(=N)N)C(=O)N[C@@H](CCCCN)C(=O)N[C@@H](CCCNC(=N)N)C(=O)N[C@@H](CC(C)C)C(=O)N[C@@H](CC(C)C)C(N)=O)C(C)C (some centres unmarked) [COG493, WKK-C-LRVRLASHLRKLRKRLL (SEQ ID NO: 90) <BMOE> WKK-C-LRVRLASHLRKLRKRLL (SEQ ID NO: 90)] |  |  |  |  | 20 |  | cytotoxicity to MDA-MB-231 cells, dimer versus monomer COG435 [3]: significantly more cytotoxic; cytotoxicity to U87MG cells (U87MG glioblastoma cells): cytotoxic |
| CC(=O)N[C@@H](C)C(=O)N[C@@H](CO)C(=O)NC(C)(C)C(=O)N[C@@H](CC(C)C)C(=O)N[C@@H](CCCNC(=N)N)C(=O)N[C@@H](CCCCN)C(=O)N[C@@H](CC(C)C)C(=O)NC(C)(C)C(=O)N[C@@H](CCCCN)C(=O)N[C@@H](CCCNC(=N)N)C(=O)N[C@@H](CC(C)C)C(=O)N[C@@H](CC(C)C)C(N)=O [COG1410, AS(Aib)LRKL(Aib)KRLL (SEQ ID NO: 5)] (Ac-AS[Aib]LRKL[Aib]KRLL-NH2; N-terminus and C-terminus assumed) |  |  |  |  | 15 | > 20 | EC50 (B-CLL cells; read-out: EC50 anti-CLL cytotoxic activity, B-CLL cells): 5.7 µM; Tmax [5]: 20 to 30 min; half-life [5]: 60 to 90 min |
| Ac-RQIKIWFQNRRMKWKKCLRVRLASHLRKLRKRLL-NH2 [COG112, RQIKIWFQNRRMKWKK-C-LRVRLASHLRKLRKRLL (SEQ ID NO: 1)] | 9.2 | 1.4 |  | < 1 | 28 | > 20 | LD50 (BV2 cells): 7 µM; safety window, LD50 versus effective suppression concentrations (BV2 cells; versus 12-58 nM): > 120 fold; IC50 (TNFα): 0.058 µM; IC50 (IL-6): 0.012 µM; IC50 (BV2 microglia cells [2]; BV2 cells, LPS 100 ng/mL, read-out: IC50 for NO production/release): 0.021 µM |
| LRVRLAS(Aib)LRKLR(K-Ac)RLL (SEQ ID NO: 35) (LRVRLAS[Aib]LRKLRK(Ac)RLL) [COG345] |  |  | improved anti-inflammatory activity |  |  |  |  |

Source: patent US9809640B2, “ApoE peptide dimers and uses thereof” (priority 2010, dated 2017)
